Laboratory results: patent US20020049139A1, “Herbicidal compositions containing DMSO” (priority 1997, published 2002)

How the values were obtained:
azaleas = experiment: Phytotoxicity of DMSO sprays on azaleas; assay type: in vivo, azalea
Method: (§1) Phytotoxicity of DMSO sprays was evaluated on hosta, ferns and azaleas. In each instance, groups of 6 plants were sprayed with 1%, 2%, 5% or 10% aqueous DMSO.

hosta = experiment: Phytotoxicity of DMSO sprays on hosta; assay type: in vivo
Method: as §1

ferns = experiment: Phytotoxicity of DMSO sprays on ferns; assay type: in vivo
Method: as §1

cacao seedling = details: aqueous solutions containing 40% or greater amounts of DMSO; cited from earlier work
sickle pod [1] = experiment: Greenhouse control of sickle pod by glyphosate with/without DMSO; assay type: in vivo
Method: Glyphosate (N-(phosphonomethyl) glycine), the active agent (41%) in Composition B and other similar non-selective herbicidal products for control of many annual and perennial grasses, broadleaf weeds, woody shrubs and trees was evaluated in greenhouse studies. The LD50 range for glyphosate in the commercial concentrate Composition B on sickle pod grown in the greenhouse was established at 0.06%, and […].
Data showing effectiveness for control of sickle pod at concentration 0.06% and 0.3% in carrier with 3% DMSO are shown below. The testing procedure used 12 sickle pod 3 inches high selected for uniformity in each treatment. The rating of injury to each plant was based on visual rating of herbicidal activity with +=10%, ++=25%, +++=50%, ++++−75% and dead plants=[…].

sickle pod [2] = experiment: as above; assay type: in vivo; remark: listed apart in the source

Structure (SMILES) | Effects (azaleas; azalea sprayed with 2% aqueous DMSO) | Effects (azaleas; azalea sprayed with 5% aqueous DMSO) | Effects (azaleas; azalea sprayed with 10% aqueous DMSO) | Effects (hosta; hosta sprayed with 2% aqueous DMSO) | Effects (hosta; hosta sprayed with 5% aqueous DMSO) | Effects (hosta; hosta sprayed with 10% aqueous DMSO) | Effects (ferns; ferns sprayed with 2% aqueous DMSO) | Effects (ferns; ferns sprayed with 5% aqueous DMSO) | Effects (ferns; ferns sprayed with 10% aqueous DMSO) | effect on cacao seedling (cacao seedling) | % control of sickle pod (sickle pod [1]; 0.03% glyphosate only, 12 days) [%] | % control of sickle pod (sickle pod [1]; 0.06% glyphosate only, 12 days) [%] | % control of sickle pod (sickle pod [1]; 0.06% glyphosate only, 20 days) [%] | % control of sickle pod (sickle pod [1]; 0.06% glyphosate only, 30 days) [%] | % control of sickle pod (sickle pod [1]; 0.06% glyphosate with 3% DMSO, 12 days) [%] | % control of sickle pod (sickle pod [1]; 0.06% glyphosate, 3% DMSO, 20 days) [%] | control of sickle pod over a 30 day interval with 3% DMSO versus glyphosate only (sickle pod [1]; 0.06% glyphosate, 3% DMSO, 30 day interval) | % control of sickle pod (sickle pod [1]; 0.06% glyphosate, 3% DMSO, 30 days) [%] | % control of sickle pod (sickle pod [2]; 0.03% glyphosate with 3% DMSO, 12 days) [%] | sickle pod control with 3% DMSO versus without DMSO (sickle pod [2]; glyphosate at 0.06% and 0.03%, 3% DMSO present)
C[S+](C)[O-] [DMSO, Dimethylsulfoxide] | non-toxic | non-toxic | non-toxic | non-toxic | non-toxic | Margina burn | non-toxic | burn on fron tips | burn on fron tips | marginal necroses |  |  |  |  |  |  |  |  |  | 
O=C(O)CNCP(=O)(O)O [glyphosate, N-(phosphonomethyl) glycine] |  |  |  |  |  |  |  |  |  |  | 54 | 51 | 43 | 85 | 90 | 85 | improved early and sustained control | 96 | 85 | significant improvement
